Results reported in patent publication US20220135622A1, “ANTIBACTERIAL PEPTIDES AND METHODS OF USE” (priority 2019, published 2022).
In brackets after ≈: the same amount, converted by molar mass. Like-named read-outs stand apart in the source and are kept apart here. Square brackets hold non-standard residues; d marks the D form. Peptide text beside a SMILES is read from it. Bip = N[C@@H](Cc1ccc(-c2ccccc2)cc1)C(=O)O; hPhe = N[C@@H](CCc1ccccc1)C(=O)O; hSer = N[C@@H](CCO)C(=O)O; Dap = NC[C@H](N)C(=O)O

Legend:
E. coli BW25113 = type: cell-based, Escherichia coli
Summary of the method: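 For MIC, bacteria (final OD600 ~0.0002) were incubated with 2-fold peptide dilutions (top 400–800 μM) in cation-adjusted MHB II with or without EDTA, 20 h at 37 °C, read by OD600. EDTA was 0.5 mM for E. coli and 0.125 mM for USA300. The growth-inhibition assay used log-phase cells at OD600 ~0.001, 4 h at 37 °C, BacTiter-Glo luminescence.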

K. pneumoniae = type: cell-based, Klebsiella pneumoniae
Experimental: (§1) Bacterial growth conditions. LB or Mueller Hinton II cation-adjusted broth (MHB II, BBL 212322) was prepared according to manufacturer's instructions and supplemented with arabinose at 0.02% for overnight growth or at indicated concentrations in the description of the figures. Bacterial cultures were grown at 37° C. When appropriate, media was supplemented with kanamycin (50 μg/mL), carbenicillin (50 μg/mL), chloramphenicol (12.5 or 25 μg/mL), hygromycin (200 μg/mL), and/or gentamicin (10 μg/mL).
(§2) Peptide sensitivity and MIC assays. Lyophilized peptides (Smartox Biotechnology, CPC Scientific. ABclonal) were solubilized to 10 mM in Tris buffer, pH 8, prior to making a 2-fold dilution series in MHBII cation adjusted broth with highest final assay concentration of 400-800 μM. Bacteria were grown to log phase and added to final OD600˜0.001. The final EDTA concentration was 0.5 mM for E. coli strains and 0.125 mM for USA300. The final volume of 10 μL/well in a 384 well black, clear bottom plate (Corning) was spun <1 min at <250×g and then incubated at 37° C. After 4 h, an equal volume (10 μL) of BacTiter-Glo™ (Promega) was added to each well and luminescence was read after 5 min on an EnVision plate reader (PerkinElmer). To measure the minimal inhibitory concentrations (MICs), bacteria from fresh overnight plates or log phase cultures were diluted with or without EDTA and peptides as described above to final OD600˜0.0002. Plates were incubated at 37° C. for 20 h before measuring OD600 with an EnVision plate reader.

A. baumannii = type: cell-based, Acinetobacter baumannii
Experimental: as §1, §2

P. aeruginosa = type: cell-based, Pseudomonas aeruginosa
Experimental: as §1, §2

| SMILES | MIC E. coli BW25113 (E. coli BW25113; Table 8) [µM] | MIC K. pneumoniae (K. pneumoniae; Table 8) [µM] | MIC A. baumannii (A. baumannii; Table 8) [µM] | MIC R. aeruginosa (P. aeruginosa; Table 8) [µM] | MIC E. coli BW25113 (E. coli BW25113; BW25113) [µM] | MIC K. pneumoniae (K. pneumoniae) [µM] | MIC A. baumannii (A. baumannii) [µM] | MIC R. aeruginosa (P. aeruginosa) [µM] |
| --- | --- | --- | --- | --- | --- | --- | --- | --- |
| CSCC[C@H](NC(=O)[C@@H]1CCCN1C(=O)[C@H](Cc1ccc(O)cc1)NC(C)=O)C(=O)N[C@@H](CN)C(=O)N[C@@H](C)C(=O)N[C@@H](CCCNC(=N)N)C(=O)N[C@@H](CCCNC(=N)N)C(=O)N[C@@H](Cc1ccc(-c2ccccc2)cc1)C(=O)N[C@@H](CC(C)C)C(=O)N[C@@H](CCC(=O)O)C(=O)N[C@@H](CCCCN)C(=O)N[C@@H](Cc1c[nH]c2ccccc12)C(=O)NCC(=O)N[C@@H](CC(C)C)C(=O)N[C@@H](CC(C)C)C(=O)N[C@@H](CCCNC(=N)N)C(N)=O [compound 80] (Ac-YPM[Dap]ARR[Bip]LEKWGLLR-NH2) | 12.5 (≈ 26.7 µg/mL) | 12.5 (≈ 26.7 µg/mL) | 12.5 (≈ 26.7 µg/mL) | 25.0 (≈ 53.5 µg/mL) | – | – | – | – |
| CSCC[C@H](NC(=O)[C@H](CN)NC(=O)[C@H](CCSC)NC(=O)[C@@H]1CCCN1C(=O)[C@H](Cc1ccc(O)cc1)NC(C)=O)C(=O)N[C@@H](CCCNC(=N)N)C(=O)N[C@@H](CCCNC(=N)N)C(=O)N[C@@H](Cc1ccc(-c2ccccc2)cc1)C(=O)N[C@@H](CC(C)C)C(=O)N[C@@H](CCC(=O)O)C(=O)N[C@@H](CCCCN)C(=O)N[C@@H](Cc1c[nH]c2ccccc12)C(=O)NCC(=O)N[C@@H](CC(C)C)C(=O)N[C@@H](CC(C)C)C(=O)N[C@@H](CCCNC(=N)N)C(N)=O [compound 82] (Ac-YPM[Dap]MRR[Bip]LEKWGLLR-NH2) | 100.0 (≈ 220 µg/mL) | 50.0 (≈ 110 µg/mL) | 12.5 (≈ 27.5 µg/mL) | 50.0 (≈ 110 µg/mL) | – | – | – | – |
| CSCC[C@H](NC(=O)[C@@H]1CCCN1C(=O)[C@H](Cc1ccc(O)cc1)NC(C)=O)C(=O)N[C@H](C(=O)N[C@@H](C)C(=O)N[C@@H](CCCNC(=N)N)C(=O)N[C@@H](CCCNC(=N)N)C(=O)N[C@@H](CCc1ccccc1)C(=O)N[C@@H](CC(C)C)C(=O)N[C@@H](CCC(=O)O)C(=O)N[C@@H](CCCCN)C(=O)N[C@@H](Cc1c[nH]c2ccccc12)C(=O)NCC(=O)N[C@@H](CC(C)C)C(=O)N[C@@H](CC(C)C)C(=O)N[C@@H](CCCNC(=N)N)C(N)=O)[C@@H](C)O [compound 84] (Ac-YPMTARR[hPhe]LEKWGLLR-NH2) | 50.0 (≈ 105 µg/mL) | 50.0 (≈ 105 µg/mL) | 25.0 (≈ 52.3 µg/mL) | 200.0 (≈ 419 µg/mL) | – | – | – | – |
| CSCC[C@H](NC(=O)[C@@H]1CCCN1C(=O)[C@H](Cc1ccc(O)cc1)NC(C)=O)C(=O)N[C@H](C(=O)N[C@@H](C)C(=O)N[C@@H](CCCNC(=N)N)C(=O)N[C@@H](CCCNC(=N)N)C(=O)N[C@@H](Cc1ccccc1)C(=O)N[C@@H](CC(C)C)C(=O)N[C@@H](CCO)C(=O)N[C@@H](CCCCN)C(=O)N[C@@H](Cc1c[nH]c2ccccc12)C(=O)NCC(=O)N[C@@H](CC(C)C)C(=O)N[C@@H](CC(C)C)C(=O)N[C@@H](CCCNC(=N)N)C(N)=O)[C@@H](C)O [compound 85] (Ac-YPMTARRFL[hSer]KWGLLR-NH2) | 200.0 (≈ 410 µg/mL) | 200.0 (≈ 410 µg/mL) | 100.0 (≈ 205 µg/mL) | 200.0 (≈ 410 µg/mL) | – | – | – | – |
| CSCC[C@H](NC(=O)[C@@H]1CCCN1C(=O)[C@H](Cc1ccc(O)cc1)NC(C)=O)C(=O)N[C@@H](CN)C(=O)N[C@@H](C)C(=O)N[C@@H](CCCNC(=N)N)C(=O)N[C@@H](CCCNC(=N)N)C(=O)N[C@@H](Cc1ccccc1)C(=O)N[C@@H](CC(C)C)C(=O)N[C@@H](C)C(=O)N[C@@H](CCCCN)C(=O)N[C@@H](Cc1c[nH]c2ccccc12)C(=O)NCC(=O)N[C@@H](CC(C)C)C(=O)N[C@@H](CC(C)C)C(=O)N[C@@H](CCCNC(=N)N)C(N)=O [compound 86] (Ac-YPM[Dap]ARRFLAKWGLLR-NH2) | 25.0 (≈ 50.1 µg/mL) | 50.0 (≈ 100 µg/mL) | 25.0 (≈ 50.1 µg/mL) | 50.0 (≈ 100 µg/mL) | – | – | – | – |
| CSCC[C@H](NC(=O)[C@@H]1CCCN1C(=O)[C@H](Cc1ccc(O)cc1)NC(C)=O)C(=O)N[C@H](C(=O)N[C@@H](C)C(=O)N[C@@H](CCCNC(=N)N)C(=O)N[C@@H](CCCNC(=N)N)C(=O)N[C@@H](Cc1ccc(-c2ccccc2)cc1)C(=O)N[C@@H](CC(C)C)C(=O)N[C@@H](C)C(=O)N[C@@H](CCCCN)C(=O)N[C@@H](Cc1c[nH]c2ccccc12)C(=O)NCC(=O)N[C@@H](CC(C)C)C(=O)N[C@@H](CC(C)C)C(=O)N[C@@H](CCCNC(=N)N)C(N)=O)[C@@H](C)O [compound 88] (Ac-YPMTARR[Bip]LAKWGLLR-NH2) | 100.0 (≈ 210 µg/mL) | 25.0 (≈ 52.4 µg/mL) | 12.5 (≈ 26.2 µg/mL) | 25.0 (≈ 52.4 µg/mL) | – | – | – | – |
| CSCC[C@H](NC(=O)[C@H](CN)NC(=O)[C@H](CCSC)NC(=O)[C@@H]1CCCN1C(=O)[C@H](Cc1ccc(O)cc1)NC(C)=O)C(=O)N[C@@H](CCCNC(=N)N)C(=O)N[C@@H](CCCNC(=N)N)C(=O)N[C@@H](Cc1c[nH]c2ccccc12)C(=O)N[C@@H](CC(C)C)C(=O)N[C@@H](CCC(=O)O)C(=O)N[C@@H](CCCCN)C(=O)N[C@@H](Cc1c[nH]c2ccccc12)C(=O)NCC(=O)N[C@@H](CC(C)C)C(=O)N[C@@H](CC(C)C)C(=O)N[C@@H](CCCNC(=N)N)C(N)=O [compound 89] (Ac-YPM[Dap]MRRWLEKWGLLR-NH2) | – | – | – | – | 25.0 (≈ 54.1 µg/mL) | 25.0 (≈ 54.1 µg/mL) | 25.0 (≈ 54.1 µg/mL) | 100.0 (≈ 216 µg/mL) |
| CSCC[C@H](NC(=O)[C@@H]1CCCN1C(=O)[C@H](Cc1ccc(O)cc1)NC(C)=O)C(=O)N[C@@H](CN)C(=O)N[C@@H](Cc1ccccc1)C(=O)N[C@@H](CCCNC(=N)N)C(=O)N[C@@H](CCCNC(=N)N)C(=O)N[C@@H](Cc1ccc(-c2ccccc2)cc1)C(=O)N[C@@H](CC(C)C)C(=O)N[C@@H](CCC(=O)O)C(=O)N[C@@H](CCCCN)C(=O)N[C@@H](Cc1c[nH]c2ccccc12)C(=O)NCC(=O)N[C@@H](CC(C)C)C(=O)N[C@@H](CC(C)C)C(=O)N[C@@H](CCCNC(=N)N)C(N)=O [compound 90] (Ac-YPM[Dap]FRR[Bip]LEKWGLLR-NH2) | 200.0 (≈ 443 µg/mL) | 50.0 (≈ 111 µg/mL) | 6.25 (≈ 13.8 µg/mL) | 25.0 (≈ 55.4 µg/mL) | – | – | – | – |
| CC(=O)N[C@@H](Cc1ccc(O)cc1)C(=O)N1CCC[C@H]1C(=O)N[C@@H](CCc1ccccc1)C(=O)N[C@H](C(=O)N[C@@H](C)C(=O)N[C@@H](CCCNC(=N)N)C(=O)N[C@@H](CCCNC(=N)N)C(=O)N[C@@H](Cc1ccccc1)C(=O)N[C@@H](CC(C)C)C(=O)N[C@@H](CCC(=O)O)C(=O)N[C@@H](CCCCN)C(=O)N[C@@H](Cc1c[nH]c2ccccc12)C(=O)NCC(=O)N[C@@H](CC(C)C)C(=O)N[C@@H](CC(C)C)C(=O)N[C@@H](CCCNC(=N)N)C(N)=O)[C@@H](C)O [compound 91] (Ac-YP[hPhe]TARRFLEKWGLLR-NH2) | 50.0 (≈ 105 µg/mL) | >400.0 | 50.0 (≈ 105 µg/mL) | >400.0 | – | – | – | – |
| CSCC[C@H](NC(=O)[C@@H]1CCCN1C(=O)[C@H](Cc1ccc(O)cc1)NC(C)=O)C(=O)N[C@H](C(=O)N[C@H](C)C(=O)N[C@@H](CCCNC(=N)N)C(=O)N[C@@H](CCCNC(=N)N)C(=O)N[C@@H](Cc1ccccc1)C(=O)N[C@@H](CC(C)C)C(=O)N[C@@H](CCC(=O)O)C(=O)N[C@@H](CCCCN)C(=O)N[C@@H](Cc1c[nH]c2ccccc12)C(=O)NCC(=O)N[C@@H](CC(C)C)C(=O)N[C@@H](CC(C)C)C(=O)N[C@@H](CCCNC(=N)N)C(N)=O)[C@@H](C)O [compound 92] (Ac-YPMT[dA]RRFLEKWGLLR-NH2) | 200.0 (≈ 416 µg/mL) | >400.0 | 200.0 (≈ 416 µg/mL) | >400.0 | – | – | – | – |
